Assay results reported in patent US12612416B2, “Modulators of cystic fibrosis transmembrane conductance regulator” (VERTEX PHARMACEUTICALS INCORPORATED, priority 2020, dated 2026).
Like-named read-outs stand apart in the source and are kept apart here.

How the values were obtained:
[1] = amide bond, 13-membered ring, HATU/DIEA, 25.0 °C
[2] = target: T1, F508del in NIH 3T3 cells (Homo sapiens, UniProt P13569, DEL508-508); experiment: 3T3 assay: membrane potential optical assay for F508del correction; assay type: cell-based, mouse; conditions: F508del NIH 3T3 cells; for EC50: compound incubation 18-24 hours at 37° C., forskolin activation; for 3T3 Max Activity: efficacy compared to lumacaftor in combination with acutely added 300 nM Ivacaftor
T1 construct: expressed in transfected cells
T1 sequence (P13569 with tags, fused parts or gaps DEL508-508): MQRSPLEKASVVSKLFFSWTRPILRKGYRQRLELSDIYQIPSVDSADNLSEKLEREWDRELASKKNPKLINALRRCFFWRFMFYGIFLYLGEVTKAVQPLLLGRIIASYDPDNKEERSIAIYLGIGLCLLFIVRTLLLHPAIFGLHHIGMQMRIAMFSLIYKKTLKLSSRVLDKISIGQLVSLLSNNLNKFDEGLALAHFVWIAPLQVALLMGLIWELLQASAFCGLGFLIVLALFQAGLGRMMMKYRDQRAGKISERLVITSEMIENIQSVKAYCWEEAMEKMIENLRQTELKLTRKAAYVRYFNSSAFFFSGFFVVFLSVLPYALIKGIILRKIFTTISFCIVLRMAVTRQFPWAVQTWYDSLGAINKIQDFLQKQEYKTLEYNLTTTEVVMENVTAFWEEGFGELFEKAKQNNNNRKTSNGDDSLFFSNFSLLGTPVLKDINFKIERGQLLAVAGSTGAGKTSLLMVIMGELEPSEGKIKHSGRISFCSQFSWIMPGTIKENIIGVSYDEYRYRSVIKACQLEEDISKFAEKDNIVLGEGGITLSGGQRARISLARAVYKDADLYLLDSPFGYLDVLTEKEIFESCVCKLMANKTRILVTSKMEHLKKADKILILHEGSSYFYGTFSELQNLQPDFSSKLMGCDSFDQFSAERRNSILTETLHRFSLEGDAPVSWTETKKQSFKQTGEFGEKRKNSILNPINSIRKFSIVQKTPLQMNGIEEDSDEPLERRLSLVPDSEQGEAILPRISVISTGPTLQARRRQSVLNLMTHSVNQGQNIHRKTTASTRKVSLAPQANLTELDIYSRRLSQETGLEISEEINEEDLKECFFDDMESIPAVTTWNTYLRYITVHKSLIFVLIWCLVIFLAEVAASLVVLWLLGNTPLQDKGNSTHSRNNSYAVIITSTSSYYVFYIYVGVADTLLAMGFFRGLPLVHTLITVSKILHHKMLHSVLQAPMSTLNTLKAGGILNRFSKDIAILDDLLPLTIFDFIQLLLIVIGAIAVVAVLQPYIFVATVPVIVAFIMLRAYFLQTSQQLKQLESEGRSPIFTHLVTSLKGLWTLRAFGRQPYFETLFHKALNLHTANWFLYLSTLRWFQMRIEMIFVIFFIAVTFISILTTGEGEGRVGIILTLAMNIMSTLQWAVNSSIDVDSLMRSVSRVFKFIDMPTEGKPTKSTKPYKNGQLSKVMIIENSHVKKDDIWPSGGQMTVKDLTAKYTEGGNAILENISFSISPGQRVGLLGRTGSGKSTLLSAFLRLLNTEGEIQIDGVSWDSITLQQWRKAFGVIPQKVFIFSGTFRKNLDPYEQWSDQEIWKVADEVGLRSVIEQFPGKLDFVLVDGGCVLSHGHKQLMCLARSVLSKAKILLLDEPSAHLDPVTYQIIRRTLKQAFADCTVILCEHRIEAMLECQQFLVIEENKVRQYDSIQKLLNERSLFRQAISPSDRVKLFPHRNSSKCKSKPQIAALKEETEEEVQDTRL
Text: The assay utilizes fluorescent voltage sensing dyes to measure changes in membrane potential using a fluorescent plate reader (e.g., FLIPR III, Molecular Devices, Inc.) as a readout for increase in functional F508del in NIH 3T3 cells. The driving force for the response is the creation of a chloride ion gradient in conjunction with channel activation by a single liquid addition step after the cells have previously been treated with compounds and subsequently loaded with a voltage sensing dye.
To identify correctors of F508del, a single-addition HTS assay format was developed. This HTS assay utilizes fluorescent voltage sensing dyes to measure changes in membrane potential on the FLIPR III as a measurement for increase in gating (conductance) of F508del in F508del NIH 3T3 cells. The F508del NIH 3T3 cell cultures were incubated with the corrector compounds at a range of concentrations for 18-24 hours at 37° C., and subsequently loaded with a redistribution dye. The driving force for the response is a Cl^− ion gradient in conjunction with channel activation with forskolin in a single liquid addition step using a fluorescent plate reader such as FLIPR III.
Bath Solution #1: (in mM) NaCl 160, KCl 4.5, CaCl2) 2, MgCl2 1, HEPES 10, pH 7.4 with NaOH.
Chloride-free bath solution: Chloride salts in Bath Solution #1 (above) are substituted with gluconate salts.
NIH3T3 mouse fibroblasts stably expressing F508del are used for optical measurements of membrane potential. The cells are maintained at 37° C. in 5% CO2 and 90% humidity in Dulbecco's modified Eagle's medium supplemented with 2 mM glutamine, 10% fetal bovine serum, 1×NEAA, b-ME, 1×pen/strep, and 25 mM HEPES in 175 cm^2 culture flasks. For all optical assays, the cells were seeded at ˜20,000/well in 384-well Matrigel-coated plates. For the correction assays, the cells are cultured at 37° C. with and without compounds for 16-24 hours.

[3] = amide bond, HATU/DIEA, DMF, 25.0 °C, 0.083 h
[4] = target: T2, CFTR-mediated chloride transport in human intestinal epithelial enteroid cells (Homo sapiens, UniProt P13569); experiment: Membrane potential dye, Enteroid Assay B; assay type: cell-based
T2 sequence (P13569 with tags, fused parts or gaps DEL508-508): as above
Experimental: (§1) Base medium (ADF+++) consisted of Advanced DMEM/Ham's F12, 2 mM Glutamax, 10 mM HEPES, […] penicillin/streptomycin.
(§2) Intestinal enteroid maintenance medium (IEMM) consisted of ADF+++, 1×B27 supplement, 1×N2 supplement, 1.25 mM N-acetyl cysteine, 10 mM Nicotinamide, 50 ng/mL hEGF, 10 nM Gastrin, 1 μg/mL hR-spondin-1, 100 ng/mL hNoggin, TGF-b type 1 inhibitor A-83-01, 100 μg/mL Primocin, 10 μM P38 MAPK inhibitor SB202190.
(§3) Bath 1 Buffer consisted of 1 mM MgCl2, 160 mM NaCl, 4.5 mM KCl, 10 mM HEPES, 10 mM Glucose, 2 mM CaCl2).
(§4) Chloride Free Buffer consisted of 1 mM Magnesium Gluconate, 2 mM Calcium Gluconate, 4.5 mM Potassium Gluconate, 160 mM Sodium Gluconate, 10 mM HEPES, 10 mM Glucose.
(§5) BathI Dye Solution consisted of Bath 1 Buffer, 0.04% Pluronic F127, 20 μM Methyl Oxonol, 30 μM CaCCinh-A01, 30 μM Chicago Sky Blue.
(§6) Chloride Free Dye Solution consisted of Chloride Free Buffer, 0.04% Pluronic F127, 20 μM Methyl Oxonol, 30 μM CaCCinh-A01, 30 μM Chicago Sky Blue.
(§7) Chloride Free Dye Stimulation Solution consisted of Chloride Free Dye Solution, 10 μM forskolin, 100 μM IBMX, and 300 nM Compound III.
(§8) Human intestinal epithelial enteroid cells were obtained from the Hubrecht Institute for Developmental Biology and Stem Cell Research, Utrecht, The Netherlands and expanded in T-Flasks as previously described (Dekkers J F, Wiegerinck C L, de Jonge H R, Bronsveld I, Janssens H M, de Winter-de Groot K M, Brandsma A M, de Jong N W M, Bijvelds M J C, Scholte B J, Nieuwenhuis E E S, van den Brink S, Clevers H, van der Ent C K, Middendorp S and M Beekman J M. A functional CFTR assay using primary cystic fibrosis intestinal organoids. Nat Med. 2013 July; 19(7):939-45.).
(§9) Cells were recovered in cell recovery solution, collected by centrifugation at 650 rpm for 5 minutes at 4° C., resuspended in TrypLE and incubated for 5 minutes at 37° C. Cells were then collected by centrifugation at 650 rpm for 5 minutes at 4° C. and resuspended in IEMM containing 10 μM ROCK inhibitor (RI). The cell suspension was passed through a 40 μm cell strainer and resuspended at 1×10^6 cells/mL in IEMM containing 10 μM RI. Cells were seeded at 5000 cells/well into multi-well plates and incubated for overnight at 37° C., 95% humidity and 5% CO2 prior to assay.
(§10) Enteroid cells were incubated with test compound in IEMM for 18-24 hours at 37° C., 95% humidity, and 5% C02. […] Briefly, cells were washed 5 times in Bath 1 Buffer. Bath 1 Dye Solution was added and the cells were incubated for 25 minutes at room temperature. Following dye incubation, cells were washed 3 times in Chloride Free Dye Solution. Chloride transport was initiated by addition of Chloride Free Dye Stimulation Solution and the fluorescence signal was read for 15 minutes. […] Chloride transport was then expressed as a percentage of the chloride transport following treatment with 1 μM (14S)-8-[3-(2-{Dispiro[2.0.2.1]heptan-7-yl}ethoxy)-1H-pyrazol-1-yl]-12,12-dimethyl-2λ^6-thia-3,9,11,18,23-pentaazatetracyclo[17.3.1.111,14.05,10]tetracosa-1(22),5,7,9,19(23),20-hexaene-2,2,4-trione, 3 μM (R)-1-(2,2-difluorobenzo[d][1,3]dioxol-5-yl)-N-(1-(2,3-dihydroxypropyl)-6-fluoro-2-(1-hydroxy-2-methylpropan-2-yl)-1H-indol-5-yl)cyclopropanecarboxamide and 300 nM acute N-[2,4-bis(1,1-dimethylethyl)-5-hydroxyphenyl]-1,4-dihydro-4-oxoquinoline-3-carboxamide triple combination control (% Activity).

[5] = target: T2, CFTR-mediated chloride transport in human intestinal epithelial enteroid cells; experiment: Membrane potential dye, Enteroid Assay A; assay type: cell-based
Experimental: as §1, §2, §3, §4, §5, §6, §7, §8, §9
as §10, with “95% humidity” for “95% humidity,”, “was added,” for “was added”, “with 3” for “with 1”, “μM (S)—N-((6-aminopyridin-2-yl)sulfonyl)-6-(3-fluoro-5-isobutoxyphenyl)-2-(2,2,4-trimethylpyrrolidin-1-yl)nicotinamide,” for “μM (14S)-8-[3-(2-{Dispiro[2.0.2.1]heptan-7-yl}ethoxy)-1H-pyrazol-1-yl]-12,12-dimethyl-2λ^6-thia-3,9,11,18,23-pentaazatetracyclo[17.3.1.111,14.05,10]tetracosa-1(22),5,7,9,19(23),20-hexaene-2,2,4-trione,”

| EC50 [2] [µM] | 3T3 Max Activity [2] | Structure (SMILES) | also measured |
| --- | --- | --- | --- |
| < 1 | +++ (+++ is >60%) | Cc1cccc(C)c1-c1cc2nc(n1)NS(=O)(=O)c1cccc(c1)NC(=O)CCCCC2 [Compound 1, 6-(2,6-dimethylphenyl)-2,2-dioxo-2 λ6-thia-3,5,15,21-tetrazatricyclo[14.3.1.14,8]henicosa-1(20),4(21),5,7,16,18-hexaen-14-one] | ring closure, yield after HPLC ([3]; from Cc1cccc(C)c1-c1cc(CCCCCC(=O)O)nc(NS(=O)(=O)c2cccc(N)c2)n1, 15-membered ring, 33.5 mM, 2 steps): 40% |
| 1 to 3 | +++ (+++ is >60%) | Cc1cccc(C)c1-c1cc2nc(n1)NS(=O)(=O)c1cccc(c1)NC(=O)CCCC2 [Compound 12] | – |
| 1 to 3 | +++ (+++ is >60%) | Cc1cccc(C)c1-c1cc2nc(n1)NS(=O)(=O)c1cccc(c1)NC(=O)CCC2 [Compound 13] | – |

Continued, molecule first:

| Structure (SMILES) | EC50 [2] [µM] | 3T3 Max Activity [2] | also measured |
| --- | --- | --- | --- |
| COC(=O)CCCN1CCC(C)c2cc(-c3c(C)cccc3C)nc(n2)NS(=O)(=O)c2cccc(c2)C1=O (centres unmarked) | – | – | ring closure, isolated yield ([1]; from COC(=O)CCCNCCC(C)c1cc(-c2c(C)cccc2C)nc(NS(=O)(=O)c2cccc(C(=O)O)c2)n1, NMP, 22.1 mM, 15.0 h): 90% |
| Cc1cccc(C)c1-c1cc2nc(n1)NS(=O)(=O)c1cccc(c1)C(=O)N(C1CC3(CC(NC(=O)OC(C)(C)C)C3)C1)[C@H](CC(C)C)CC2 (some centres unmarked) | – | – | ring closure, isolated yield ([1]; from Cc1cccc(C)c1-c1cc(CC[C@@H](CC(C)C)NC2CC3(CC(NC(=O)OC(C)(C)C)C3)C2)nc(NS(=O)(=O)c2cccc(C(=O)O)c2)n1, NMP, 27.3 mM, 2.0 h): 88% |
| Cc1cccc(C)c1-c1cc2nc(n1)NS(=O)(=O)c1cccc(c1)C(=O)N(C1CC3(CCN(C(=O)OC(C)(C)C)CC3)C1)[C@H](CC(C)C)CC2 | – | – | ring closure, isolated yield ([1]; from Cc1cccc(C)c1-c1cc(CC[C@@H](CC(C)C)NC2CC3(CCN(C(=O)OC(C)(C)C)CC3)C2)nc(NS(=O)(=O)c2cccc(C(=O)O)c2)n1, NMP, 97.4 mM, 2.0 h): 68% |
| Cc1cccc(C)c1-c1cc2nc(n1)NS(=O)(=O)c1cccc(c1)NC(=O)c1cccc(c1)C2 [Compound 2, 5-(2,6-Dimethylphenyl)-9 λ6-thia-6,8,15,23-tetraazatetracyclo [15.3.1.13,7.110,14]tricosa-1(21),3(23),4,6,10,12,14(22),17,19-nonaene-9,9,16-trione] | 1 to 3 | +++ (+++ is >60%) | ring closure, yield after HPLC ([3]; from Cc1cccc(C)c1-c1cc(Cc2cccc(C(=O)O)c2)nc(NS(=O)(=O)c2cccc(N)c2)n1, 14-membered ring, 86.8 mM, 3 steps): 14% |
| Cc1cccc(C)c1-c1cc2nc(n1)NS(=O)(=O)c1cccc(c1)C(=O)NCCC2c1ccc(C(C)(C)C)cc1 (centres unmarked) [Compound 5, 9-(4-tert-Butylphenyl)-6-(2,6-dimethylphenyl)-2,2-dioxo-2 λ6-thia-3,5,12,19-tetrazatricyclo[12.3.1.14,8]nonadeca-1(18),4(19),5,7,14,16-hexaen-13-one] | – | – | Ent. B Max Activity ([4]; % of chloride transport of triple combination control: 1 μM (14S)-8-[3-(2-{Dispiro[2.0.2.1]heptan-7-yl}ethoxy)-1H-pyrazol-1-yl]-12,12-dimethyl-...-2,2,4-trione, 3 μM tezacaftor, 300 nM acute ivacaftor): +++ (+++ is >60%); EC50 ([4]; enteroid cells, 18-24 hours incubation, acute 10 μM forskolin and 300 nM ivacaftor, read-out: Ent. B EC50): < 1 µM; ring closure, isolated yield ([1]; from Cc1cccc(C)c1-c1cc(C(CCN)c2ccc(C(C)(C)C)cc2)nc(NS(=O)(=O)c2cccc(C(=O)O)c2)n1, DMF, 11.6 mM, 21.0 h): 40% |
| Cc1cccc(C)c1-c1cc2nc(n1)NS(=O)(=O)c1cccc(c1)C(=O)O[C@H](c1ccc(C(C)(C)C)cn1)[C@@H](CC(C)C)N2C [Compound 35] | < 1 | +++ (+++ is >60%) | Ent. A Max Activity ([5]; % of chloride transport of triple combination control: 3 μM (S)-N-((6-aminopyridin-2-yl)sulfonyl)-6-(3-fluoro-5-isobutoxyphenyl)-2-(2,2,4-trimethylpyrrolidin-1-yl)nicotinamide, 3 μM tezacaftor, 300 nM acute ivacaftor): ++ (++ is 30-60%); EC50 ([5]; enteroid cells, 18-24 hours incubation, acute 10 μM forskolin and 300 nM ivacaftor, read-out: Ent. A EC50): 1 to 3 µM |
